Twelve compounds from ChEMBL document CHEMBL1649106, “Structures of 1-Deoxy-D-Xylulose-5-Phosphate Reductoisomerase/Lipophilic Phosphonate Complexes” (ACS Med Chem Lett, 2011) can be followed below.

Series [1] concerns Plasmodium falciparum. Briefly: Antimalarial activity against Plasmodium falciparum. The class given is functional, organism-based.
Series [2] concerns the target T1, 1-deoxy-D-xylulose 5-phosphate reductoisomerase (Escherichia coli K-12, UniProt P45568).
T1 sequence (P45568 whole entry): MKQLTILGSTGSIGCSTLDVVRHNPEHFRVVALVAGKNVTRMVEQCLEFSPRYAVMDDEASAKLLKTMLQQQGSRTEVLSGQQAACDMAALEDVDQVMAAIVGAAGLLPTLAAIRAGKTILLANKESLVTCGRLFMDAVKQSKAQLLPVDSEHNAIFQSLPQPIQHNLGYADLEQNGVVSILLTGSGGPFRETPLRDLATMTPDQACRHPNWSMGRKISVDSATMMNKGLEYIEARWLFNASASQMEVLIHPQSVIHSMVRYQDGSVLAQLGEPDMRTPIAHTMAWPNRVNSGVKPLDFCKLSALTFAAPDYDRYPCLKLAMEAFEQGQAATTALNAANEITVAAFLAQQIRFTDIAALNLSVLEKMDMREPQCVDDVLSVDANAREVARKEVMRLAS
Briefly: Inhibition of Escherichia coli DXR.

The nature of series [3]: Half life in plasma. The class given is ADME, cell-free.

In series [1], `CC(=O)N(O)CC[C@H](c1ccccc1)P(=O)(O)O` yielded a 50% effective concentration (EC50) of 250 nM. In series [2], `O=P(O)(O)Cc1ccncc1` came in with an IC50 of 7100 nM. On to `O=CN(O)CCCc1ccncc1`, for which the IC50 in series [2] is over 100000 nM. In the case of `COc1ccc([C@@H](CCN(O)C(C)=O)P(=O)(O)O)cc1`, the half-maximal effective concentration (EC50) in series [1] was determined as 250 nM. In series [2], the half-maximal inhibitory concentration (IC50) stood at 459 nM. Compound `O=P(O)(O)Cc1ccc(Cl)c(Cl)c1` returned an IC50 in series [2] of over 100000 nM. In series [1], `CC(=O)N(O)CC[C@H](c1ccc(Cl)cc1)P(=O)(O)O` gave an EC50 of 250 nM. This compound came in with an IC50 in series [2] of 99 nM. `O=P(O)(O)Cc1cccnc1` displayed an IC50 in series [2] of 10000 nM. Compound `O=CN(O)CCCc1ccc(Cl)c(Cl)c1` displayed a half-inhibitory concentration (IC50) in series [2] of over 100000 nM.

Consider `O=c1ccc(-c2ccccc2)cn1O` [1-HYDROXY-5-PHENYLPYRIDIN-2(1H)-ONE], for which the IC50 in series [2] is 1400 nM. With `CC(=O)N(O)CC[C@H](c1ccc(Cl)c(Cl)c1)P(=O)(O)O`, the half-maximal effective concentration (EC50) in series [1] was 250 nM. Further, the IC50 in series [2] is 119 nM. In the case of `O=CN(O)CCCP(=O)(O)O` [FOSMIDOMYCIN], the response in series [1] was half-maximal at 1100 nM (EC50). This compound also gave a half-life in series [3] of 1 h. Take `CC(=O)N(O)CC[C@H](c1ccc(C)cc1)P(=O)(O)O`: a half-maximal response in series [1] (EC50) required 250 nM. For the same compound, the IC50 in series [2] was determined as 396 nM.

In general, EC50 refers to the concentration at which the effect is half-maximal. One may read the IC50 as the midpoint of a concentration-inhibition curve. As a reminder, the half-life is the time needed for the level to fall by half in the phase considered.
